# Results taken from US8283479B2, “CXCR2 inhibitors” (Sanofi-Aventis Deutschland GmbH, priority 2004, dated 2012).
# Molecular target: T1, human CXCR2 (Homo sapiens, UniProt P25025)
# T1 construct: expressed in transfected cells; host or cells: CHO-K1
# T1 sequence (P25025 1-360): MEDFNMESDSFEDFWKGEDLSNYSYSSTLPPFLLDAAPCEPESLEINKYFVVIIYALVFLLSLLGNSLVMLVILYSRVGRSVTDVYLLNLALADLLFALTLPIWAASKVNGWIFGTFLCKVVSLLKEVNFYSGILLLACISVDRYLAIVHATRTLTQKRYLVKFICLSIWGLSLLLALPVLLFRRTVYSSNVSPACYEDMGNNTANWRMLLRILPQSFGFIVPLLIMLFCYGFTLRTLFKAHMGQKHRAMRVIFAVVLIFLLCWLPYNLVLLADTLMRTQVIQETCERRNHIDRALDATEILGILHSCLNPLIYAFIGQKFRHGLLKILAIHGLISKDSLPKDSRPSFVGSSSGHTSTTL
# Experiment: CXCR2 inhibition: calcium fluorescence assay (FLIPR)
# Assay type: cell-based
# Settings: CHO-K1 cells stably transfected with human CXCR2 and Gα16; Fluo-4; % inhibition of calcium response to chemokine (10-100 nM)
# Description: Determination of CXCR2 Inhibition: Calcium Fluorescence Assay (FLIPR)
# The assay is based on the detection of intracellular calcium changes detected by the selective, calcium-chelating dye, Fluo-4 (Molecular Probes). A large fluorescence intensity increase is observed upon calcium association with Fluo-4. The dye is delivered to the cell interior using an acetoxymethylester form of Fluo-4, where the intracellular esterase activity results in the charged species being released and trapped within the cytoplasm of the cell. […] By co-expressing the CXCR2 receptor and the promiscuous Gα16 protein, activation of this chemokine receptor is directed into this phospholipase C cascade resulting in intracellular calcium mobilization.
# The CHO—K1 cells stably transfected with human CXCR2 and the promiscuous Gα16 protein were maintained in a log phase of growth at 37° C. and 5% CO2 in the following media: Iscove's, 10% FBS, 1× Penicillin-Streptomycin, 400 μg/mL G418 and 350 μg/mL Zeocin. Approximately 24-48 hours prior to the assay, 20,000-30,000 cells/well were plated onto a 96-well black/clear bottomed assay plate (Becton Dickinson) with a well volume of 180 μl. For dye-loading the culture medium was carefully removed and replaced by 100 μl/well dye solution (4 μM Fluo-4 in 135 mM NaCl, 5 mM KCl, 1 mM magnesium sulphate, 5 mM glucose, 20 mM Hepes, 2.5 mM probenecid; pH 7.4). Cells were incubated for 1 h at 37° C., and then washed 3× with buffer. After washing 90 μl buffer/well were left. Increasing concentrations of compound was added in 45 μl buffer (4× concentrated) followed by 10 min incubation at 37° C. Then the chemokine (10-100 nM) was applied in 45 μl buffer (4× concentrated) and the measurement performed for 2 min. The IC50 value of a compound was determined by calculation of % inhibition of total calcium response to the chemokine.
row,SMILES,IC50 [nM]
1,"CCC(C)(NC(=O)c1ccc2ccccc2c1OCc1ccc(OC(F)(F)F)c(Cl)c1)C(=O)O (centres unmarked) [Example 105, 2-{[1-(3-Chloro-4-trifluoromethoxy-benzyloxy)-naphthalene-2-carbonyl]-amino}-2-methyl-butyric acid]",1620
2,"CC(NC(=O)c1ccc2ccccc2c1OCc1ccc(C(F)(F)F)cc1)C(=O)O (centres unmarked) [Example 110, 2-{[1-(4-Trifluoromethyl-benzyloxy)-naphthalene-2-carbonyl]-amino}-propionic acid]",700
3,"CC(C)(NC(=O)c1cc(Br)c2ccccc2c1OCc1ccc(OC(F)(F)F)cc1)C(=O)O [Example 42, 2-{[4-Bromo-1-(4-trifluoromethoxy-benzyloxy)-naphthalene-2-carbonyl]-amino}-2-methyl-propionic acid]",972
4,"CCC(C)(NC(=O)c1ccc2ccccc2c1OCc1cc2ccccc2s1)C(=O)O (centres unmarked) [Example 74, 2-{[1-(Benzo[b]thiophen-2-ylmethoxy)-naphthalene-2-carbonyl]-amino}-2-methyl-butyric acid]",980
5,"CC(C)(NC(=O)c1ccc2ccccc2c1OCc1ccc2nonc2c1)C(=O)O [Example 5, 2-{[1-(Benzo[1,2,5]oxadiazol-5-ylmethoxy)-naphthalene-2-carbonyl]-amino}-2-methyl-propionic acid]",3210

# Results, then the compound that gave them:
row,IC50 [nM],SMILES
1,996,"O=C(NC1(C(=O)O)CCCC1)c1ccc2ccccc2c1OCc1ccc(C(F)(F)F)cc1 [Example 127, 1-{[1-(4-Trifluoromethyl-benzyloxy)-naphthalene-2-carbonyl]-amino}-cyclopentanecarboxylic acid]"
2,200,"CC(C)C(C)(NC(=O)c1sc2ccccc2c1OCc1ccc(C(F)(F)F)cc1)C(=O)O (centres unmarked) [Example 131, 2,3-Dimethyl-2-{[3-(4-trifluoromethyl-benzyloxy)-benzo[b]thiophene-2-carbonyl]-amino}-butyric acid]"
3,4440,"CC(C)(NC(=O)c1sc2ccccc2c1OCc1ccc(C(F)(F)F)nc1)C(=O)O [Example 120, 2-Methyl-2-{[3-(6-trifluoromethyl-pyridin-3-ylmethoxy)-benzo[b]thiophene-2-carbonyl]-amino}-propionic acid]"
